Source: patent US8940704B2, “Advantageous salts of μ-opiate receptor peptides” (Cytogel Pharma, LLC, priority 2007, dated 2015)
In brackets after ≈: the same amount, converted by molar mass.

Experiments:
[1] = Solution stability (HPLC total area normalization); assay type: physicochemical; details: for Solution stability, 2 weeks at 25° C. / Solution stability, 2 weeks at 40° C. / Solution stability, Time Zero: 90:10 acetonitrile:water with 0.1% TFA; for Solution stability, Time Zero: 0.3 mg/mL
Protocol: Solution Stability. The four final salt candidates were dissolved (in duplicate) in acetonitrile: water: (90:10) with 0.1% TFA at a concentration of 0.3 mg (free base basis) per mL of solvent. The scintillation vials were sealed. One vial of each salt solution was placed in a 40™C over for 2 weeks. Another vial of each salt solution was stored at 25° C. for 2 week. These solutions (and “time zero” solutions) were analyzed for CYT-1010 by HPLC.
(§1) HPLC Analysis. Salt candidates were analyzed by total area normalization (TAN). The samples were dissolved in acetonitrile:water (90:10) with 0.1% TFA at a free base concentration of 0.3 mg/mL.
(§2) • HPLC column: YMC-Pack ODS-A 150 mm, 4.6 mm, 5 micron • Guard Column (optional) None • Column Temp: 25±1° C. • Sample Temp: ambient • Autosampler Flush: 1:1 Water:CAN • Flow Rate: 1.5 mL/min • Injection Volume: 7 μL • UV Detection: 215 nm • Run Time: 32 minutes • Analysis Time: 32 minutes • Mobil Phase: A—0.1% TFA in water • B—0.1% TFA in CAN • Gradient Puym Program*: […]
The solution stability characteristics were evaluated by collecting HPLC data on solutions stored in sealed vials for two weeks at approximately 25 and 40° C. The storage solution consisted of 90:10 acetronitrile:water with 0.1% TFA which is the diluent for the HPLC assay.

[2] = Solid state stability (HPLC total area normalization); assay type: physicochemical; details: for Solid state stability, 2 weeks at 25° C. / Solid state stability, 2 weeks at 60° C.: sealed vial
Protocol: Solid State Stability. Power samples of the four final salt candidates were transferred (in duplicate) to scintillation vials and sealed. One vial of each salt was placed in a 60° C. over for 2 week. Another vial of each salt was stored at 25° C. for 2 week. These samples (and “time zero” solutions) were analyzed for CYT-1010 by HPLC.
as §1, §2
The solid state stability characteristics were evaluated by collecting HPLC data on salt samples stored in sealed vials at 25 and 60° C. for two weeks.

[3] = Photostability (ICH option 2 UV, HPLC); assay type: physicochemical; details: for Photostability, 2 weeks UV Exposed: ICH option 2 UV; for Photostability, 2 weeks UV Exposed / Photostability, 2 weeks Dark Control: about 25° C.; for Photostability, 2 weeks Dark Control: covered with aluminum foil; for decrease in area %, photostability: from time zero to UV exposed
Protocol: Photo Stability. Samples of the four final salt candidates were transferred (in duplicate) to crystallizing dishes and sealed with Saran® wrap. One dish of each salt was also covered with aluminum foil (as the dark controls). Another dish of each salt was not covered with aluminum foil (as the photoexposed samples). The samples were exposed to ICH compliant option 2 UV sources to examine their stability with respect to light at approximately 25° C. Dark controls and time zero samples were also analyzed for comparison. Samples were analyzed for CYT-1010 by HPLC.
as §1, §2
Samples of the four salt candidates were exposed to ICH compliant option 2 UV sources to examine their stability with respect to light at approximately 25° C. Dark controls were also analyzed for comparison.

[4] = Oxidation stability (pure oxygen atmosphere, HPLC); assay type: physicochemical
Protocol: Oxidation Stability. Samples of the four final salt candidates were exposed to a pure oxygen atmosphere for 2 weeks to examiner their stability with respect to oxidation at 25° C. Samples were analyzed for CYT-1010 by total area normalization for impurity profile by HPLC.
as §1, §2
Samples of the four salts were exposed to a pure oxygen atmosphere to examine their stability with respect to oxidation at 25° C.

[5] = Dynamic vapor sorption (DVS); assay type: physicochemical; details: 25° C.
Protocol: Dynamic Vapor Sorption (DVS) (Performed by Surface Measurement Systems Ltd., Allentown, Pa.). Samples were run in an automated dynamic vapor sorption analyzer from 0 to 95% relative humidity and back to 0% relative humidity at 25° C. in 5% RH steps. Samples were predried (to constant mass) under a dry nitrogen stream before analysis. Weight change as a function of humidity and time was recorded to construct a moisture isotherm and kinetic plot of water sorption and desorption. Sample masses were generally in the range of 1-5 mg.

[6] = HPLC impurity profile at time zero; assay type: physicochemical
Protocol: as §1, §2
The scaled-up aspartate, hydrochloride, lactate, and maleate salts together with the free base were analyzed in duplicate by total area normalization (TAN) to determine their impurity profiles. […] The salts were also stressed in solution using heat.
Samples were prepared at a free base concentration of 0.3 mg/mL. The diluent for all sample preparations was 90:10 acetronitrile:water with 0.1% TFA. All solutions were sonicated for at least five minutes prior to analysis. Analysis was done over four days. The impurity profile of the free base, as shown in the table below, was consistent over this time.
Time Zero. Some observations were made concerning the HPLC impurity profile of the free base and salt samples. First, impurities at 0.89, 0.92, 1.02, and 1.03 RRT (relative retention time) are detected in the time zero sample preparations of the free base and all four salts. The largest of these four impurities is the 1.02 RRT impurity which is between 0.4 and 0.5 area % in all five compounds. The maleate salt also has a very large impurity peak at time zero (2.7 area %) at 1.14 RRT. Thus the maleate salt has a relatively low area % purity of 96 area %.

[7] = physchem; details: aqueous buffer
[8] = target: delta receptors (Homo sapiens, UniProt P41143); details: selectivity mu over delta
[9] = 2 weeks at 25° C. versus time zero
[10] = 2 weeks at 60° C. as compared to 25° C. data
[11] = 2 weeks pure oxygen atmosphere, 25° C.

Sequence of delta receptors (P41143 whole entry): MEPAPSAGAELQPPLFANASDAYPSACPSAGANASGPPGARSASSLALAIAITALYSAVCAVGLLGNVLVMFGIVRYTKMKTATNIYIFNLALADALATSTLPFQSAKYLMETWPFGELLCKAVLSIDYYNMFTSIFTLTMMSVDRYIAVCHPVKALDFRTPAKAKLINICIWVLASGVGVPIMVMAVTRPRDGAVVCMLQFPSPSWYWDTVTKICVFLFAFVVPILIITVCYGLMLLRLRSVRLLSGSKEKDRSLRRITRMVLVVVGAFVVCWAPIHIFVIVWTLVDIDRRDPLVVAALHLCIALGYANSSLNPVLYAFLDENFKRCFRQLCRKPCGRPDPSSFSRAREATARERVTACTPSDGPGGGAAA

With `NC(Cc1ccc(O)cc1)C(=O)NC1CCCCNC(=O)C(Cc2ccccc2)NC(=O)C(Cc2c[nH]c3ccccc23)NC1=O` [Free Base, H-Tyr-c-[D-Lys-Trp-Phe]] the “Solution stability, 2 weeks at 25° C.” value ([1]; 2 weeks at 25° C.) was 98.6 area %, the “Solution stability, 2 weeks at 40° C.” value ([1]; 2 weeks at 40° C.) was 98.7 area % and the “Impurity by RRT 0.21” value ([1]; solution, 2 weeks at 25° C.) was 0.50 area %. For the same molecule, the “Impurity by RRT 0.89” value ([1]; solution, 2 weeks at 25° C.) was 0.06 area %, the “Impurity by RRT 0.92” value ([1]; solution, 2 weeks at 25° C.) was 0.04 area % and the “Impurity by RRT 0.95” value ([1]; solution, 2 weeks at 25° C.) was 0.06 area %. The “Impurity by RRT 1.02” value ([1]; solution, 2 weeks at 25° C.) was 0.53 area %, the “Impurity by RRT 1.03” value ([1]; solution, 2 weeks at 25° C.) was 0.18 area % and the “Impurity by RRT 0.21” value ([1]; solution, 2 weeks at 40° C.) was 0.50 area %. For the same molecule, the “Impurity by RRT 0.89” value ([1]; solution, 2 weeks at 40° C.) was 0.04 area %, the “Impurity by RRT 0.95” value ([1]; solution, 2 weeks at 40° C.) was 0.03 area % and the “Impurity by RRT 1.02” value ([1]; solution, 2 weeks at 40° C.) was 0.51 area %. The “Impurity by RRT 1.03” value ([1]; solution, 2 weeks at 40° C.) was 0.18 area %, the “Solution stability, Time Zero” value [1] was 99.2 area % and the “decrease in area %, solid state stability” value [2, 9] was 0.4 area %. For the same molecule, the “decrease in area %, solid state stability” value [2, 10] was “decreased slightly”, the “Solid state stability, Time Zero” value [2] was 99.2 area % and the “Solid state stability, 2 weeks at 25° C.” value [2] was 98.8 area %. For the same molecule, the “Solid state stability, 2 weeks at 60° C.” value [2] was 98.7 area %, the “changes in HPLC-TAN values upon exposure to heat, light, or oxygen” value ([2]; summary of Tables 6-9) was “did not exhibit significant changes” and the “Photostability, 2 weeks UV Exposed” value [3] was 98.9 area %. The “Photostability, 2 weeks Dark Control” value [3] was 99.0 area %, the “Photostability, Time Zero” value [3] was 99.2 area % and the “decrease in area %, photostability” value [3] was 0.3 area %. The “Impurity by RRT 0.87” value [4, 11] was 0.04 area %, the “Impurity by RRT 0.89” value [4, 11] was 0.30 area % and the “Impurity by RRT 0.92” value [4, 11] was 0.20 area %. The “Impurity by RRT 0.95” value [4, 11] was 0.04 area %, the “Impurity by RRT 1.02” value [4, 11] was 0.53 area % and the “Impurity by RRT 1.03” value [4, 11] was 0.20 area %. The “Oxidation stability, 2 weeks Oxidation” value [4, 11] was 97.7 area %, the “decrease in area %, oxidative stability” value ([4]; 2 weeks pure oxygen versus time zero) was 1.5 area % and the “Oxidation stability, Time Zero” value [4] was 99.2 area %. The DVS water uptake ([5]; by 90% RH) was “up to 1.7 wt %”, the “Impurity by RRT 0.89” value [6] was 0.09 area % and the “Impurity by RRT 0.92” value [6] was 0.05 area %. The “Impurity by RRT 1.02” value [6] was 0.53 area %, the “Impurity by RRT 1.03” value [6] was 0.16 area % and the solubility ([7]; pH 7) was under 3 µg/mL. For the same molecule, the solubility ([7]; pH 10) was 6 µg/mL (≈ 9.6 µM).
In the case of Lactate, the “Solution stability, 2 weeks at 25° C.” value ([1]; 2 weeks at 25° C.) is reported as 98.5 area %, the “Solution stability, 2 weeks at 40° C.” value ([1]; 2 weeks at 40° C.) is reported as 98.5 area % and the “Impurity by RRT 0.21” value ([1]; solution, 2 weeks at 25° C.) is reported as 0.59 area %. For the same molecule, the “Impurity by RRT 0.89” value ([1]; solution, 2 weeks at 25° C.) was 0.05 area %, the “Impurity by RRT 0.92” value ([1]; solution, 2 weeks at 25° C.) was 0.11 area % and the “Impurity by RRT 0.95” value ([1]; solution, 2 weeks at 25° C.) was 0.14 area %. The “Impurity by RRT 1.02” value ([1]; solution, 2 weeks at 25° C.) was 0.49 area %, the “Impurity by RRT 1.03” value ([1]; solution, 2 weeks at 25° C.) was 0.15 area % and the “Impurity by RRT 0.21” value ([1]; solution, 2 weeks at 40° C.) was 0.62 area %. The “Impurity by RRT 0.89” value ([1]; solution, 2 weeks at 40° C.) was 0.04 area %, the “Impurity by RRT 0.92” value ([1]; solution, 2 weeks at 40° C.) was 0.04 area % and the “Impurity by RRT 0.95” value ([1]; solution, 2 weeks at 40° C.) was 0.14 area %. For the same molecule, the “Impurity by RRT 0.98” value ([1]; solution, 2 weeks at 40° C.) was under 0.03 area %, the “Impurity by RRT 1.02” value ([1]; solution, 2 weeks at 40° C.) was 0.50 area % and the “Impurity by RRT 1.03” value ([1]; solution, 2 weeks at 40° C.) was 0.16 area %. The “Impurity by RRT 1.32” value ([1]; solution, 2 weeks at 40° C.) was under 0.03 area %, the “Impurity by RRT 2.39” value ([1]; solution, 2 weeks at 40° C.) was under 0.03 area % and the “Solution stability, Time Zero” value [1] was 99.2 area %. The “decrease in area %, solid state stability” value [2, 9] was 0.2 area %, the “decrease in area %, solid state stability” value [2, 10] was 0.5 area % and the “Solid state stability, Time Zero” value [2] was 99.2 area %. For the same molecule, the “Solid state stability, 2 weeks at 25° C.” value [2] was 99.0 area %, the “Solid state stability, 2 weeks at 60° C.” value [2] was 98.5 area % and the “Photostability, 2 weeks UV Exposed” value [3] was 98.6 area %. For the same molecule, the “Photostability, 2 weeks Dark Control” value [3] was 99.0 area %, the “Photostability, Time Zero” value [3] was 99.2 area % and the “decrease in area %, photostability” value [3] was 0.6 area %. For the same molecule, the “Impurity by RRT 0.87” value [4, 11] was under 0.03 area %, the “Impurity by RRT 0.89” value [4, 11] was 0.24 area % and the “Impurity by RRT 0.92” value [4, 11] was 0.20 area %. For the same molecule, the “Impurity by RRT 0.95” value [4, 11] was 0.13 area %, the “Impurity by RRT 1.02” value [4, 11] was 0.49 area % and the “Impurity by RRT 1.03” value [4, 11] was 0.15 area %. The “Impurity by RRT 1.18” value [4, 11] was under 0.03 area %, the “Oxidation stability, 2 weeks Oxidation” value [4, 11] was 98.8 area % and the “Oxidation stability, Time Zero” value [4] was 99.2 area %. The DVS water uptake ([5]; 0-70% RH range) was 1-3 wt %, the DVS water uptake ([5]; by 90% RH) was “up to 6 wt %” and the “Impurity by RRT 0.89” value [6] was 0.04 area %. For the same molecule, the “Impurity by RRT 0.92” value [6] was 0.08 area %, the “Impurity by RRT 0.95” value [6] was 0.10 area % and the “Impurity by RRT 1.02” value [6] was 0.49 area %. The “Impurity by RRT 1.03” value [6] was 0.13 area % and the “Impurity by RRT 1.18” value [6] was under 0.03 area %.
In the case of H-Tyr-Pro-Trp-Phe-NH2 [SEQ ID NO:1], the “fold weaker binding to delta receptors than to mu opiate receptor” value [8] is reported as “over 4000 fold”.
